The values below come from ChEMBL document CHEMBL1201862, “PubChem BioAssay data set” (2004).

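Five concentrations, 48 hours, 96-well plates. Abbreviation: GI50, concentration required for 50% inhibition of growth.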 The source made the active and inactive calls. Rule as the data show it: active = GI50 up to about 1.1 µM and inactive = higher. Bounds are passed on as bounds.

Test in all cases: NCI anticancer screen, dose series, 48 h
Assay [1] relates to SW-620.
Assay [2] deals with HL-60.
For assay [3], the system named is UACC-257.
Assay [4] concerns SK-MEL-28.
The subject of assay [5] is HCT-15.
Assay [6] relates to A498.
Assay [7] concerns HOP-62.
Assay [8] deals with Malme-3M.
In assay [9] the test system is A549.
The test system of assay [10] is KM12.
For assay [11], the system named is OVCAR-5.
Assay [12] deals with OVCAR-8.
Assay [13] relates to SNB-75.
Assay [14] relates to UO-31.
In assay [15] the test system is SK-MEL-2.
For assay [16], the system named is CAKI-1.
Assay [17] deals with NCI-H522.
Assay [18] has as its system U-251.
Assay [19] relates to OVCAR-4.
Assay [20] deals with RPMI-8226.

Regarding `NCCCNCCSSCc1ccccc1CSSCCNCCCN`, the GI50 in assay [1] was 16.7 µM (inactive); in assay [2], 9.93 µM (inactive); in assay [3], 25 µM (inactive); in assay [4], 75 µM (inactive); in [5], 57.1 µM; in assay [6] it was > 100 µM (inactive). Besides, the GI50 in [7] is > 100 µM (inactive); in assay [8], 90.6 µM (inactive); in assay [9] it was > 100 µM (inactive); in [10], 49.9 µM (inactive); in assay [11], > 100 µM (inactive); in assay [12], > 100 µM (inactive). For the same molecule, the GI50 is 16.4 µM (inactive) in assay [13]; 60.5 µM (inactive) in assay [14]; > 100 µM (inactive) in assay [15]; 35.7 µM (inactive) in assay [16]; 10.7 µM (inactive) in [17]; > 100 µM (inactive) in [18]. In addition, the GI50 was 70.6 µM (inactive) in [19] and 27.8 µM (inactive) in [20].
